Where only a bound is given, the exact number is not on record here.

The test system of one test is IMR-32. The test is described as follows: In vitro cytotoxicity against human cancerous neuroblastoma cells (IMR-32). It counts as functional, cell-based.
Another test deals with HeLa. As to the kind of experiment: In vitro cytotoxicity against human cervix adenocarcinoma (HeLa) tumor cell line. It counts as functional, cell-based.
The test system of test [1] is MCF7. The test is described as follows: In vitro cytotoxicity against human cancerous cells (MCF-7) was determined. In kind it is functional, cell-based.
For another test, the system named is NCI-H460. The test is described as follows: In vitro cytotoxicity against human lung carcinoma (NCI-H460) tumor cell line. In kind it is functional, cell-based.
Another test relates to NCI-H69. The test is described as follows: In vitro cytotoxicity against human cancerous cells (NCI-H69) was determined. It counts as functional, cell-based.
For a further test, the system named is AR-42J cell line. As to the kind of experiment: In vitro cytotoxicity against rat pancreatic (AR-42J) tumor cell line. In kind it is functional, cell-based.
The subject of the next test is HCT-116. The test is described as follows: In vitro cytotoxicity against human colon carcinoma (HCT116) tumor cell line. It counts as functional, cell-based.
For another test, the system named is CHO-K1. The test is described as follows: In vitro cytotoxicity against chinese hamster ovary (CHO-K1) tumor cell line. In kind it is functional, cell-based, Cricetulus griseus.
The next test concerns MOLT-4. The test is described as follows: In vitro cytotoxicity against human leukemia (MOLT-4) cell line. It counts as functional, cell-based.
A further test deals with DLD-1. As to the kind of experiment: In vitro cytotoxicity against human colon adenocarcinoma (DLD-1) tumor cell line. It counts as functional, cell-based.
In the next test the test system is CFPAC-1. As to the kind of experiment: In vitro cytotoxicity against human pancreatic cancer (CFPAC-1) tumor cell line. In kind it is functional, cell-based.
The test system of a further test is DU-145. As to the kind of experiment: In vitro cytotoxicity against human Prostate carcinoma (DU145) tumor cell line. In kind it is functional, cell-based.
In a further test the test system is T98G. As to the kind of experiment: In vitro cytotoxicity against human glioblastoma (T-98G) tumor cell line. In kind it is functional, cell-based.
Another test relates to ACHN. The test is described as follows: In vitro cytotoxicity against human renal adenocarcinoma (ACHN) tumor cell line. In kind it is functional, cell-based.
For test [2], the system named is MCF7. The test is described as follows: In vitro cytotoxicity against human breast carcinoma (MCF-7) tumor cell line. It counts as functional, cell-based.

In the test on IMR-32 (Homo sapiens, IMR-32), `COc1cc(N2C(=O)C(OC(C)=O)C2c2ccc(N)o2)cc(OC)c1OC` (configuration not stated) had an IC50 greater than 1000 nM.
On the same count and under the same terms, then `COc1cc(N2C(=O)C(OC(C)=O)C2c2ccc3c(c2)OCO3)cc(OC)c1OC` (configuration not stated), with 910 nM; and `COc1cc(N2C(=O)C(OC)C2c2ccc3c(c2)OCO3)cc(OC)c1OC` (configuration not stated), with greater than 1000 nM; and `COc1cc(N2C(=O)C(O)C2c2ccc([N+](=O)[O-])o2)cc(OC)c1OC` (configuration not stated), with greater than 1000 nM.
`COc1ccc(C2C(OC(C)=O)C(=O)N2c2cc(OC)c(OC)c(OC)c2)cc1` (configuration not stated) gave an IC50 in the test with IMR-32 (Homo sapiens, IMR-32) of 251 nM.
For `COc1cc(N2C(=O)C(OC(C)=O)C2c2ccc(N(C)C)cc2)cc(OC)c1OC` (configuration not stated), in the test on IMR-32 (Homo sapiens, IMR-32), the IC50 is 520 nM.
As to `COc1ccc(C2C(O)C(=O)N2c2cc(OC)c(OC)c(OC)c2)cc1N` (configuration not stated), the IC50 in the test with HeLa came to 63.9 nM; with MCF7 [1], 81 nM; in the test with NCI-H460, 184 nM; with IMR-32 (Homo sapiens, IMR-32), 37 nM; in the test on IMR-32 (imr-32), 38.3 nM; in the test on NCI-H69 it was 25 nM. In addition, the IC50 was found to be 62.1 nM with AR-42J cell line; 140 nM with HCT-116; 544 nM with CHO-K1 (Cricetulus griseus, CHO-K1); 411 nM in the test on CHO-K1 (cho-k1); 71.7 nM with MOLT-4; 130 nM in the test on DLD-1. In addition, the IC50 in the test with CFPAC-1 was 50.2 nM; in the test on DU-145, 380 nM; in the test on T98G, 109 nM; in the test with ACHN, 91.2 nM; in the test on MCF7 [2] it was 55 nM.
For the compound `COc1ccc(N2C(=O)C(O)C2c2cc(OC)c(OC)c(OC)c2)cc1` (configuration not stated), in the test on IMR-32 (Homo sapiens, IMR-32), the IC50 was greater than 1000 nM.
For `COc1cc(N2C(=O)C(O)C2c2ccc3c(c2)OCO3)cc(OC)c1OC` (configuration not stated), the IC50 in the test on HeLa came out at 546 nM; in the test with NCI-H460, 1440 nM; in the test on IMR-32 (Homo sapiens, IMR-32) it was 473 nM; in the test on IMR-32 (imr-32) it was 445 nM; in the test on AR-42J cell line, 1480 nM; with HCT-116, 950 nM. Besides, the IC50 was 891 nM in the test with CHO-K1 (Cricetulus griseus, CHO-K1); 398 nM in the test with MOLT-4; 905 nM in the test on DLD-1; 885 nM in the test on CFPAC-1; 3160 nM in the test with DU-145; 800 nM in the test on T98G. For the same compound, the IC50 in the test on ACHN was determined as 2120 nM; in the test on MCF7 [2], 544 nM.
On to `COc1ccc(C2C(O)C(=O)N2c2cc(OC)c(OC)c(OC)c2)cc1` (configuration not stated), for which the IC50 in the test with MCF7 [1] stood at 62 nM; in the test on IMR-32 (Homo sapiens, IMR-32), 33 nM; with NCI-H69 it was 47 nM; with CHO-K1 (Cricetulus griseus, CHO-K1) it was 509 nM.
`COc1ccc2cc(C3C(O)C(=O)N3c3cc(OC)c(OC)c(OC)c3)ccc2c1` (configuration not stated) displayed an IC50 with IMR-32 (Homo sapiens, IMR-32) of 89 nM.
With `COc1ccc(C2C(OC)C(=O)N2c2cc(OC)c(OC)c(OC)c2)cc1[N+](=O)[O-]` (configuration not stated), the IC50 is greater than 10000 nM in the test on HeLa; greater than 10000 nM with NCI-H460; greater than 10000 nM with IMR-32 (imr-32); greater than 10000 nM in the test with AR-42J cell line; greater than 10000 nM in the test on HCT-116; greater than 10000 nM with CHO-K1 (Cricetulus griseus, CHO-K1). The IC50 in the test on MOLT-4 is greater than 10000 nM; in the test with DLD-1, greater than 10000 nM; with CFPAC-1, greater than 10000 nM; in the test with DU-145 it was greater than 10000 nM; in the test with T98G, greater than 5000 nM; in the test on ACHN, greater than 10000 nM. In the test on MCF7 [2], this compound registered an IC50 greater than 10000 nM.
For the compound `COc1cc(N2C(=O)C(OC(C)=O)C2c2ccc([N+](=O)[O-])o2)cc(OC)c1OC` (configuration not stated), the IC50 in the test on IMR-32 (Homo sapiens, IMR-32) stood at 811 nM.
As for `COc1cc(C2C(OC(C)=O)C(=O)N2c2ccc3c(c2)OCO3)cc(OC)c1OC` (configuration not stated), the IC50 in the test with HeLa is greater than 10000 nM; with NCI-H460, greater than 10000 nM; in the test on IMR-32 (imr-32) it was greater than 10000 nM; with AR-42J cell line it was greater than 10000 nM; in the test on HCT-116, greater than 10000 nM; in the test with CHO-K1 (Cricetulus griseus, CHO-K1), greater than 10000 nM. The IC50 in the test with MOLT-4, with DLD-1, with CFPAC-1, in the test with DU-145, with T98G and in the test with ACHN was greater than 10000 nM in each case. In addition, in the test with MCF7 [2], the concentration for half-maximal inhibition (IC50) is greater than 10000 nM.
On to `COc1ccc2cc(C3C(OC(C)=O)C(=O)N3c3cc(OC)c(OC)c(OC)c3)ccc2c1` (configuration not stated), for which the IC50 in the test with IMR-32 (Homo sapiens, IMR-32) was greater than 1000 nM.
Same read-out and setting: then `COc1ccc(C2C(OC(C)=O)C(=O)N2c2cc(OC)c(OC)c(OC)c2)cn1` (configuration not stated), with greater than 1000 nM.
Consider `COc1ccc(C2C(O)C(=O)N2c2cc(OC)c(OC)c(OC)c2)cn1` (configuration not stated), for which, in the test with IMR-32 (Homo sapiens, IMR-32), the IC50 is greater than 1000 nM.
On to `COc1ccc(C2C(OC(C)=O)C(=O)N2c2cc(OC)c(OC)c(OC)c2)cc1N` (configuration not stated), for which the IC50 with HeLa is 262 nM; in the test on MCF7 [1] it was 200 nM; with NCI-H460 it was 449 nM; in the test on IMR-32 (Homo sapiens, IMR-32), 73.1 nM; with NCI-H69, 41 nM; in the test on AR-42J cell line it was 219 nM. The IC50 amounted to 368 nM with HCT-116; 462 nM in the test on CHO-K1 (Cricetulus griseus, CHO-K1); 509 nM in the test with CHO-K1 (cho-k1); 372 nM with MOLT-4; 394 nM in the test with DLD-1; 204 nM in the test on CFPAC-1. Moreover, the IC50 in the test with DU-145 amounted to 430 nM; with T98G, 145 nM; in the test with ACHN, 150 nM; with MCF7 [2], 70.5 nM.
Regarding `COc1ccc(C2C(OC(C)=O)C(=O)N2c2cc(OC)c(OC)c(OC)c2)cc1[N+](=O)[O-]` (configuration not stated), the IC50 in the test with HeLa came to 202 nM; in the test with NCI-H460, 393 nM; in the test with IMR-32 (Homo sapiens, IMR-32), 123 nM; with AR-42J cell line it was 582 nM; with HCT-116, 526 nM; in the test with CHO-K1 (Cricetulus griseus, CHO-K1), 473 nM. Besides, the IC50 is 350 nM in the test with MOLT-4; 326 nM with DLD-1; 197 nM in the test with CFPAC-1; 479 nM with DU-145; 144 nM in the test on T98G; 595 nM in the test on ACHN. Besides, the IC50 in the test on MCF7 [2] worked out at 105 nM.
In the case of `COc1cc(C2C(O)C(=O)N2c2ccc3c(c2)OCO3)cc(OC)c1OC` (configuration not stated), in the test with IMR-32 (Homo sapiens, IMR-32), the IC50 was greater than 1000 nM.
`COc1ccc(C2C(OC)C(=O)N2c2cc(OC)c(OC)c(OC)c2)cc1N` (configuration not stated): in the test with IMR-32 (Homo sapiens, IMR-32), the IC50 is greater than 1000 nM.
Turning to `COc1ccc(C2C(O)C(=O)N2c2cc(OC)c(OC)c(OC)c2)cc1[N+](=O)[O-]` (configuration not stated), the IC50 worked out at 40 nM in the test on HeLa; 97 nM in the test on MCF7 [1]; 425 nM in the test with NCI-H460; 38 nM with IMR-32 (Homo sapiens, IMR-32); 41.4 nM with IMR-32 (imr-32); 74 nM with NCI-H69. Further, the IC50 is 212 nM with AR-42J cell line; 68.8 nM in the test with HCT-116; 236 nM with CHO-K1 (Cricetulus griseus, CHO-K1); 416 nM in the test with CHO-K1 (cho-k1); 74 nM in the test on MOLT-4; 59.1 nM in the test on DLD-1. The IC50 with CFPAC-1 turned out to be 42.1 nM; in the test with DU-145, 91.9 nM; in the test on T98G, 49.8 nM; in the test with ACHN, 29.2 nM; in the test with MCF7 [2], 37.1 nM.
For the compound `COc1ccc(N2C(=O)C(OC(C)=O)C2c2cc(OC)c(OC)c(OC)c2)cc1` (configuration not stated), in the test on IMR-32 (Homo sapiens, IMR-32), the half-maximal inhibitory concentration (IC50) was greater than 1000 nM.

Broadly, the IC50 is the point on the concentration scale where inhibition reaches its midpoint.

The record behind these values is ChEMBL document CHEMBL1147534, “Examination of the 1,4-disubstituted azetidinone ring system as a template for combretastatin A-4 conformationally restricted analogue design” (Bioorg Med Chem Lett, 2004).
